Laboratory results reported in US20110034528A1, “Elansolids, Novel Natural Metabolites of Flexibacter and Antibiotically Active Derivatives Thereof” (priority 2008, published 2011).
In brackets after ≈: the same amount, converted by molar mass.

What was measured:
[1] = Transformation of Elansolid A2 in solution; type: physicochemical; details: in solution (especially in DMSO)
[2] = tested on: Mycobacterium lacticola; assay: Minimum inhibitory concentration (MIC) determination; type: cell-based
Procedure: (§1) The determination of minimum inhibitory concentrations was performed as described in J. Antimicrob. Chemother. 2001;48 Suppl 1:5-16.

[3] = tested on: S. aureus 29213; assay: as above; type: cell-based; details: Staphylococcus aureus
Procedure: as §1

[4] = tested on: S. aureus MRS3 (clinical isolate of a multiresistant S. aureus); assay: as above; type: cell-based; details: Staphylococcus aureus
Procedure: as §1

[5] = tested on: E. faecalis 25912; assay: as above; type: cell-based; details: Enterococcus faecalis
Procedure: as §1

[6] = tested on: Micrococcus luteus; assay: as above; type: cell-based
Procedure: as §1

[7] = tested on: Chromobacterium violaceum; assay: as above; type: cell-based
Procedure: as §1

[8] = tested on: Corynebact. fascians; assay: as above; type: cell-based
Procedure: as §1

[9] = tested on: gram-positive bacteria; assay: Elansolid C1: antibiotic spectrum against gram positive bacteria; type: cell-based

SMILES	transformation in solution [1]	MIC [2]	MIC [3]	MIC [4]	MIC [5]	MIC [6]	MIC [7]	MIC [8]	Inhibition zone ([9]; Arthrobacter simplex)	Inhibition zone ([9]; Bacillus polymyxa)	Inhibition zone ([9]; Bacillus thuringiensis)	Inhibition zone ([9]; Brevibact. ammoniagenes)	Inhibition zone ([9]; Corynebact. fascians)	Inhibition zone ([9]; Micrococcus luteus)	Inhibition zone ([9]; Mycobact. chitae)	Inhibition zone ([9]; Nocardia flava)	Inhibition zone ([9]; Staph. aureus)	Inhibition zone ([9]; Streptococcus faecalis)	activity against selected gram-positive bacteria ([9]; selected gram-positive bacteria)
CC1=CC2C(C3C1\C=C/C=C/C=C\C(O)C(C)C(O)C/C=C(C)/C=C/C(=O)OC3c1ccc(O)cc1)C(C)(C)CC2(C)O (stereo not drawn) [Elansolid A2]	transformed into Elansolid A1	3.3 µg/mL (≈ 5.6 µM)	4 µg/mL (≈ 6.79 µM)	0.8 µg/mL (≈ 1.36 µM)	64 µg/mL (≈ 109 µM)	0.2 µg/mL (≈ 0.34 µM)	3.3 µg/mL (≈ 5.6 µM)	1.6 µg/mL (≈ 2.72 µM)											
CC1=CC2C(C(C(Nc3ccccc3C(=O)O)c3ccc(O)cc3)C1\C=C/C=C/C=C\C(O)C(C)C(O)C/C=C(C)/C=C/C(=O)O)C(C)(C)CC2(C)O (stereo not drawn) [Elansolid C1]				1.7 µg/mL (≈ 2.34 µM)		0.4 µg/mL (≈ 0.551 µM)			25 mm	20 mm	17 mm	17 mm	26 mm	27 mm	15 mm	14 mm	11 mm	14 mm	bactericidal activity
